The text below walks through data of paper PMC8162404, “Proteomimetic surface fragments distinguish targets by function” (Chemical Science, 2020).

pKd: −log10 of the molar value.

For the first assay, the target named is T1, Gal-1 (Homo sapiens, UniProt P09382).
T1 construct: made in house; host or cells: E. coli BL21(DE3)
T1 sequence (P09382 whole entry): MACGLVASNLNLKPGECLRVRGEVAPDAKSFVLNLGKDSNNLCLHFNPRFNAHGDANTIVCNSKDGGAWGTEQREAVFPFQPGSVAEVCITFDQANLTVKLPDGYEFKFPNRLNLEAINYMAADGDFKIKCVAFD
Put plainly: Pull-down assay with immobilized protein and LSM libraries. The class given is binding. To be noted: H12 library; 1:1 binding assumed; read-out: Surface mapping KD (apparent). The procedure: Pull-down assays with immobilized test proteins and foldameric LSM libraries were carried out. Proteins were equilibrated with LSM probes, and equilibrium bound fractions (FB) were determined from the unbound fractions measured by HPLC-MS methods. Hits were corrected with background binding of the resin. The protocol allowed all binding events to equilibrate irrespective of affinity, specificity, and binding kinetics. This was essential to judge overall druggability and promiscuity. Importantly, the concentration of protein and the total concentration of foldameric LSMs were equimolar, which minimized competition between the probes. This experimental setup approximated independent binding of individual library members. Results were visualized as heat maps of dissociation constants (Fig. 3).
Pull-down assay and data analysis
Pull-down assay. LSM sublibraries were screened separately as previously described.(2) Experiments were performed in the following buffers: (i) 20 mM pH 7.4 HEPES, 150 mM NaCl, 5 mM CaCl2 for CaM; (ii) 50 mM pH 7.4 HEPES, 150 mM NaCl, 1 mM TCEP, 1 mM CaCl2 for S100 proteins; (iii) 20 mM pH 7.4 HEPES, 150 mM NaCl, 1 mM TCEP for Gal-1 and (iv) 20 mM pH 7.4 HEPES, 150 mM NaCl for RecQ-WH. Assays were performed in paper filter spin cups (Thermo Scientific) with sample volumes of 100 µl. Hexahistidine-tagged proteins were immobilized on previously washed Co-NTA resin (TALON, Takara Bio USA, Inc., Mountain View, CA) in 64 µM final concentration. LSM sublibrary was added, in which each of the 64 library members were used at a concentration of 1 µM. Samples were incubated at room temperature for 30 min with shaking at 100 rpm. Then, samples were centrifuged at 1000 rpm for 2 min and washed with 100 µl pull-down buffer to remove unbound compounds.
The control experiments were performed using the same compounds and the resin but without the immobilized protein. In case of competitive assays, competitor peptides were added to LSM sublibrary samples in 200 µM final concentration. In the case of Gal-1, lactose (competitor) was used in a concentration of 10 mM. Experiments were performed at least twice. Mean […]
LC-MS methods and parameters. HPLC/ESI-MS analysis was used to characterize the samples from the pull-down assay. LC-MS analysis was performed with a Thermo Scientific Dionex UltiMate 3000 HPLC system interfaced to an LTQ ion trap mass spectrometer (Thermo Electron Corp., San Jose, CA, USA). Samples were injected onto an Aeris Widepore XB-C18 (250 x 4.6 mm) analytical HPLC column using gradient elution 5-80 % solution B during 25 minutes. For pull-down samples, eluent composition was 0.1% acetic acid in distilled water (Solution A) and 0.1% acetic acid in acetonitrile (solution B). Mass spectra were acquired in full scan mode from 200 to 2000 m/z range. For overlapping peaks, selective reaction monitoring (SRM) was […]
MS data analysis. Thermo Xcalibur 2.2 software was used for peak identification and integration. The majority of the foldameric fragments could be resolved independently via HPLC-MS/MS measurements based on molecular weight, MS fragmentation pattern and retention time. Peaks of some foldamers with β3-hIle or β3-hLeu in position R2 could not be resolved, these were integrated and averaged. In the processing method, each sample component was associated to a chromatographic peak based on previously identified mass (m/z) and retention time (ref (2) and Table S7-10). Using ICIS peak detection algorithm, the general detection and integration criteria were: smoothing points: 5, baseline window: 80, area noise factor: 5, peak noise factor: 10. Using these processing setups, all raw data files were reprocessed together and analyzed. Errors in peak identification during the automatic processing were corrected manually.
Calculation of the discussed parameters
1. Bound fractions (FB.) were calculated from the HPLC-MS intensity loss of the LSM probes compared to the control where no protein was immobilized to the resin: […]
As for `NC(=O)[C@H]1CCC[C@@H]1NC(=O)[C@H]1CCC[C@@H]1NC(=O)C[C@H](CO)NC(=O)[C@H]1CCC[C@@H]1NC(=O)[C@H]1CCC[C@@H]1NC(=O)C[C@H](CCC(=O)O)NC(=O)[C@H]1CCC[C@@H]1NC(=O)[C@H]1CCC[C@@H]1N` [H12 ES], the pKd was 3.54. On the same count and under the same terms, the value for `C[C@@H](O)[C@@H](CC(=O)N[C@H]1CCC[C@@H]1C(=O)N[C@H]1CCC[C@@H]1C(N)=O)NC(=O)[C@H]1CCC[C@@H]1NC(=O)[C@H]1CCC[C@@H]1NC(=O)C[C@H](CC(=O)O)NC(=O)[C@H]1CCC[C@@H]1NC(=O)[C@H]1CCC[C@@H]1N` [H12 DT] was 3.40; that for `NC(=O)[C@H]1CCC[C@@H]1NC(=O)[C@H]1CCC[C@@H]1NC(=O)C[C@H](CC(=O)O)NC(=O)[C@H]1CCC[C@@H]1NC(=O)[C@H]1CCC[C@@H]1NC(=O)C[C@H](CC(=O)O)NC(=O)[C@H]1CCC[C@@H]1NC(=O)[C@H]1CCC[C@@H]1N` [H12 DD] was 3.43; that for `CC(C)[C@@H](CC(=O)N[C@H]1CCC[C@@H]1C(=O)N[C@H]1CCC[C@@H]1C(=O)N[C@@H](CCC(=O)O)CC(=O)N[C@H]1CCC[C@@H]1C(=O)N[C@H]1CCC[C@@H]1C(N)=O)NC(=O)[C@H]1CCC[C@@H]1NC(=O)[C@H]1CCC[C@@H]1N` [H12 VE] was 3.33. Same read-out and setting: the value for `NC(=O)[C@H]1CCC[C@@H]1NC(=O)[C@H]1CCC[C@@H]1NC(=O)C[C@H](CC(=O)O)NC(=O)[C@H]1CCC[C@@H]1NC(=O)[C@H]1CCC[C@@H]1NC(=O)C[C@H](CCC(=O)O)NC(=O)[C@H]1CCC[C@@H]1NC(=O)[C@H]1CCC[C@@H]1N` [H12 ED] was 3.62; that for `CC(C)[C@@H](CC(=O)N[C@H]1CCC[C@@H]1C(=O)N[C@H]1CCC[C@@H]1C(N)=O)NC(=O)[C@H]1CCC[C@@H]1NC(=O)[C@H]1CCC[C@@H]1NC(=O)C[C@H](CC(=O)O)NC(=O)[C@H]1CCC[C@@H]1NC(=O)[C@H]1CCC[C@@H]1N` [H12 DV] was 3.57. The same measure, in the same setting: the value for `C[C@@H](CC(=O)N[C@H]1CCC[C@@H]1C(=O)N[C@H]1CCC[C@@H]1C(=O)N[C@@H](CC(=O)O)CC(=O)N[C@H]1CCC[C@@H]1C(=O)N[C@H]1CCC[C@@H]1C(N)=O)NC(=O)[C@H]1CCC[C@@H]1NC(=O)[C@H]1CCC[C@@H]1N` [H12 AD] was 3.36; that for `NC(=O)[C@H]1CCC[C@@H]1NC(=O)[C@H]1CCC[C@@H]1NC(=O)C[C@H](Cc1ccc(O)cc1)NC(=O)[C@H]1CCC[C@@H]1NC(=O)[C@H]1CCC[C@@H]1NC(=O)C[C@H](CCC(=O)O)NC(=O)[C@H]1CCC[C@@H]1NC(=O)[C@H]1CCC[C@@H]1N` [H12 EY] was 3.59; that for `CC(C)[C@@H](CC(=O)N[C@H]1CCC[C@@H]1C(=O)N[C@H]1CCC[C@@H]1C(N)=O)NC(=O)[C@H]1CCC[C@@H]1NC(=O)[C@H]1CCC[C@@H]1NC(=O)C[C@H](C)NC(=O)[C@H]1CCC[C@@H]1NC(=O)[C@H]1CCC[C@@H]1N` [H12 AV] was 3.31. For `C[C@@H](CC(=O)N[C@H]1CCC[C@@H]1C(=O)N[C@H]1CCC[C@@H]1C(N)=O)NC(=O)[C@H]1CCC[C@@H]1NC(=O)[C@H]1CCC[C@@H]1NC(=O)C[C@H](CCC(=O)O)NC(=O)[C@H]1CCC[C@@H]1NC(=O)[C@H]1CCC[C@@H]1N` [H12 EA], the pKd was 3.47. On the same count and under the same terms, the value for `NC(=O)[C@H]1CCC[C@@H]1NC(=O)[C@H]1CCC[C@@H]1NC(=O)C[C@H](CO)NC(=O)[C@H]1CCC[C@@H]1NC(=O)[C@H]1CCC[C@@H]1NC(=O)C[C@H](CC(=O)O)NC(=O)[C@H]1CCC[C@@H]1NC(=O)[C@H]1CCC[C@@H]1N` [H12 DS] was 3.70. The same measure, in the same setting: the value for `CSCC[C@@H](CC(=O)N[C@H]1CCC[C@@H]1C(=O)N[C@H]1CCC[C@@H]1C(N)=O)NC(=O)[C@H]1CCC[C@@H]1NC(=O)[C@H]1CCC[C@@H]1NC(=O)C[C@H](CC(=O)O)NC(=O)[C@H]1CCC[C@@H]1NC(=O)[C@H]1CCC[C@@H]1N` [H12 DM] was 3.66. Same read-out and setting: the value for `C[C@@H](CC(=O)N[C@H]1CCC[C@@H]1C(=O)N[C@H]1CCC[C@@H]1C(=O)N[C@@H](CO)CC(=O)N[C@H]1CCC[C@@H]1C(=O)N[C@H]1CCC[C@@H]1C(N)=O)NC(=O)[C@H]1CCC[C@@H]1NC(=O)[C@H]1CCC[C@@H]1N` [H12 AS] was 3.51. Turning to `NC(=O)[C@H]1CCC[C@@H]1NC(=O)[C@H]1CCC[C@@H]1NC(=O)C[C@H](Cc1ccccc1)NC(=O)[C@H]1CCC[C@@H]1NC(=O)[C@H]1CCC[C@@H]1NC(=O)C[C@H](CCC(=O)O)NC(=O)[C@H]1CCC[C@@H]1NC(=O)[C@H]1CCC[C@@H]1N` [H12 EF], the pKd was 3.61. On the same count and under the same terms, the value for `C[C@@H](O)[C@@H](CC(=O)N[C@H]1CCC[C@@H]1C(=O)N[C@H]1CCC[C@@H]1C(N)=O)NC(=O)[C@H]1CCC[C@@H]1NC(=O)[C@H]1CCC[C@@H]1NC(=O)C[C@H](CCC(=O)O)NC(=O)[C@H]1CCC[C@@H]1NC(=O)[C@H]1CCC[C@@H]1N` [H12 ET] was 3.43; that for `NCCCC[C@@H](CC(=O)N[C@H]1CCC[C@@H]1C(=O)N[C@H]1CCC[C@@H]1C(N)=O)NC(=O)[C@H]1CCC[C@@H]1NC(=O)[C@H]1CCC[C@@H]1NC(=O)C[C@H](CC(N)=O)NC(=O)[C@H]1CCC[C@@H]1NC(=O)[C@H]1CCC[C@@H]1N` [H12 NK] was 3.37. On the same count and under the same terms, the value for `NC(=O)CC[C@@H](CC(=O)N[C@H]1CCC[C@@H]1C(=O)N[C@H]1CCC[C@@H]1C(N)=O)NC(=O)[C@H]1CCC[C@@H]1NC(=O)[C@H]1CCC[C@@H]1NC(=O)C[C@H](CCC(=O)O)NC(=O)[C@H]1CCC[C@@H]1NC(=O)[C@H]1CCC[C@@H]1N` [H12 EQ] was 3.63; that for `NCCCC[C@@H](CC(=O)N[C@H]1CCC[C@@H]1C(=O)N[C@H]1CCC[C@@H]1C(=O)N[C@@H](CCC(=O)O)CC(=O)N[C@H]1CCC[C@@H]1C(=O)N[C@H]1CCC[C@@H]1C(N)=O)NC(=O)[C@H]1CCC[C@@H]1NC(=O)[C@H]1CCC[C@@H]1N` [H12 KE] was 3.67; that for `N=C(N)NCCC[C@@H](CC(=O)N[C@H]1CCC[C@@H]1C(=O)N[C@H]1CCC[C@@H]1C(=O)N[C@@H](CC(=O)O)CC(=O)N[C@H]1CCC[C@@H]1C(=O)N[C@H]1CCC[C@@H]1C(N)=O)NC(=O)[C@H]1CCC[C@@H]1NC(=O)[C@H]1CCC[C@@H]1N` [H12 RD] was 3.60. Regarding `CC(C)[C@@H](CC(=O)N[C@H]1CCC[C@@H]1C(=O)N[C@H]1CCC[C@@H]1C(=O)N[C@@H](CC(=O)O)CC(=O)N[C@H]1CCC[C@@H]1C(=O)N[C@H]1CCC[C@@H]1C(N)=O)NC(=O)[C@H]1CCC[C@@H]1NC(=O)[C@H]1CCC[C@@H]1N` [H12 VD], the pKd was 3.32. On to `CC(C)[C@@H](CC(=O)N[C@H]1CCC[C@@H]1C(=O)N[C@H]1CCC[C@@H]1C(=O)N[C@H](CC(=O)N[C@H]1CCC[C@@H]1C(=O)N[C@H]1CCC[C@@H]1C(N)=O)[C@@H](C)O)NC(=O)[C@H]1CCC[C@@H]1NC(=O)[C@H]1CCC[C@@H]1N` [H12 VT], for which the pKd was 3.36.

In the case of `CC[C@H](C)[C@@H](CC(=O)N[C@H]1CCC[C@@H]1C(=O)N[C@H]1CCC[C@@H]1C(=O)N[C@@H](CC(=O)O)CC(=O)N[C@H]1CCC[C@@H]1C(=O)N[C@H]1CCC[C@@H]1C(N)=O)NC(=O)[C@H]1CCC[C@@H]1NC(=O)[C@H]1CCC[C@@H]1N` [H12 ID], the pKd was 3.34. On the same count and under the same terms, next, `CSCC[C@@H](CC(=O)N[C@H]1CCC[C@@H]1C(=O)N[C@H]1CCC[C@@H]1C(N)=O)NC(=O)[C@H]1CCC[C@@H]1NC(=O)[C@H]1CCC[C@@H]1NC(=O)C[C@H](CCC(=O)O)NC(=O)[C@H]1CCC[C@@H]1NC(=O)[C@H]1CCC[C@@H]1N` [H12 EM]: 3.60.

Still in this assay, the particulars now being: H14 library; 1:1 binding assumed; read-out: Surface mapping KD (apparent).
Regarding `C[C@@H](CC(=O)N[C@H]1CCCC[C@@H]1C(=O)N[C@H]1CCCC[C@@H]1C(=O)N[C@@H](CC(=O)O)CC(=O)N[C@H]1CCCC[C@@H]1C(N)=O)NC(=O)[C@H]1CCCC[C@@H]1N` [H14 AD], the pKd is 3.77.

What is called pKd is the Kd on a negative log10 scale, so that one unit is a factor of ten.
